Columns and labels:
Format in all cases: in vivo
corn (Zea mays) [1] = test: Test G Post-Emergence Protocol; settings: for Corn damage rating: evaluated after 13 days, 100=total damage to plant, 0=no damage to plant
Description: (§1) Seeds of corn (Zea mays), giant foxtail (Setaria faberi), barnyardgrass (Echinochloa crus-galli), ivy-leaved morning glory (Ipomoea hederacea), redroot pigweed (Amaranthus retroflexus) and velvetleaf (Abutilon theophrasti) were sown in standard soil in pots. After cultivation for 8 days under controlled conditions in a glasshouse (at 24/16° C., day/night; 14 hours light; 65% humidity), the plants were sprayed with an aqueous spray solution derived from the formulation of the technical active ingredient in acetone/water (50:50) solution containing 0.5% Tween 20 (polyoxyethylene sorbitan monolaurate, CAS RN 9005-64-5) to give a final dose of 15.625, 62.5 or 250 g/ha of test compound.
(§2) The test plants were then grown on under controlled conditions in a glasshouse (at 24/16° C., day/night; 14 hours light; 65% humidity) and watered twice daily. After 13 days the test was evaluated (100=total damage to plant; 0=no damage to plant). A dash (-) means no test result.

[2] = tested on: velvetleaf (Abutilon theophrasti); test: Test G Post-Emergence Protocol; settings: for Velvetleaf damage rating: evaluated after 13 days, 100=total damage to plant, 0=no damage to plant
Description: as §1, §2

[3] = tested on: ivy-leaved morning glory (Ipomoea hederacea); test: Test G Post-Emergence Protocol
Description: as §1, §2

[4] = tested on: giant foxtail (Setaria faberi); test: Test G Post-Emergence Protocol
Description: as §1, §2

[5] = tested on: redroot pigweed (Amaranthus retroflexus); test: Test G Post-Emergence Protocol; settings: for Pigweed, Redroot damage rating: evaluated after 13 days, 100=total damage to plant, 0=no damage to plant
Description: as §1, §2

[6] = tested on: barnyardgrass (Echinochloa crus-galli); test: Test G Post-Emergence Protocol
Description: as §1, §2

corn (Zea mays) [7] = test: Test G Pre-Emergence Protocol; settings: evaluated after 13 days
Description: as §1, with “one day” for “8 days”
as §2

[8] = tested on: velvetleaf (Abutilon theophrasti); test: Test G Pre-Emergence Protocol; settings: evaluated after 13 days
Description: as §1, with “one day” for “8 days”
as §2

[9] = tested on: ivy-leaved morning glory (Ipomoea hederacea); test: Test G Pre-Emergence Protocol; settings: evaluated after 13 days
Description: as §1, with “one day” for “8 days”
as §2

[10] = tested on: giant foxtail (Setaria faberi); test: Test G Pre-Emergence Protocol; settings: evaluated after 13 days
Description: as §1, with “one day” for “8 days”
as §2

[11] = tested on: redroot pigweed (Amaranthus retroflexus); test: Test G Pre-Emergence Protocol; settings: evaluated after 13 days
Description: as §1, with “one day” for “8 days”
as §2

[12] = tested on: barnyardgrass (Echinochloa crus-galli); test: Test G Pre-Emergence Protocol; settings: evaluated after 13 days
Description: as §1, with “one day” for “8 days”
as §2

[13] = 15.625 g ai/ha, evaluated after 13 days (100=total damage to plant; 0=no damage to plant)
[14] = 62.5 g ai/ha, evaluated after 13 days, 100=total damage to plant, 0=no damage to plant
[15] = 250 g ai/ha, evaluated after 13 days, 100=total damage to plant, 0=no damage to plant
[16] = 62.5 g ai/ha, 100=total damage to plant, 0=no damage to plant

SMILES: CN1C[C@@H](c2ccc(C(F)(F)F)cc2)[C@H](C(=O)Nc2cccnc2F)C1=O (racemic) [Compound 1653]
- Corn damage rating (corn (Zea mays) [1]; 62.5 g ai/ha): 30
- Corn damage rating (corn (Zea mays) [1]; 250 g ai/ha): 70
- plant injury at 15.625 g/ha (corn (Zea mays) [1]; Zea mays, post-emergence, 312 h, 15.625 g ai/ha, evaluated after 13 days (100=total damage to plant; 0=no damage to plant), read-out: Corn damage rating): 0%
- Velvetleaf damage rating ([2]; 62.5 g ai/ha): 40
- Velvetleaf damage rating ([2]; 250 g ai/ha): 50
- pest or weed control at 15.625 g/ha ([2]; Abutilon theophrasti, post-emergence, 312 h, 15.625 g ai/ha, evaluated after 13 days (100=total damage to plant; 0=no damage to plant), read-out: Velvetleaf damage rating): 0%
- Morningglory, Ivy-leaved damage rating [3, 13]: 10
- Morningglory, Ivy-leaved damage rating [3, 14]: 30
- Morningglory, Ivy-leaved damage rating [3, 15]: 40
- Foxtail, Giant damage rating [4, 13]: 60
- Foxtail, Giant damage rating [4, 14]: 80
- Foxtail, Giant damage rating [4, 15]: 80
- Pigweed, Redroot damage rating ([5]; 62.5 g ai/ha): 70
- Pigweed, Redroot damage rating ([5]; 250 g ai/ha): 80
- pest or weed control at 15.625 g/ha ([5]; Amaranthus retroflexus, post-emergence, 312 h, 15.625 g ai/ha, evaluated after 13 days (100=total damage to plant; 0=no damage to plant), read-out: Pigweed, Redroot damage rating): 0%
- Barnyardgrass damage rating [6, 13]: 30
- Barnyardgrass damage rating [6, 14]: 60
- Barnyardgrass damage rating [6, 15]: 80
- Corn damage rating (corn (Zea mays) [7]; [16]): 30
- Corn damage rating (100=total damage to plant; 0=no damage to plant) (corn (Zea mays) [7]; 250 g ai/ha): 80
- plant injury at 15.625 g/ha (corn (Zea mays) [7]; Zea mays, pre-emergence, 312 h, 15.625 g ai/ha, read-out: Corn damage rating (100=total damage to plant; 0=no damage to plant)): 0%
- Velvetleaf damage rating [8, 16]: 10
- Velvetleaf damage rating (100=total damage to plant; 0=no damage to plant) ([8]; 250 g ai/ha): 50
- pest or weed control at 15.625 g/ha ([8]; Abutilon theophrasti, pre-emergence, 312 h, 15.625 g ai/ha, read-out: Velvetleaf damage rating (100=total damage to plant; 0=no damage to plant)): 0%
- Morningglory, Ivy-leaved damage rating (100=total damage to plant; 0=no damage to plant) ([9]; 250 g ai/ha): 20
- pest or weed control at 15.625 g/ha ([9]; Ipomoea, pre-emergence, 312 h, 15.625 g ai/ha, read-out: Morningglory, Ivy-leaved damage rating (100=total damage to plant; 0=no damage to plant)): 0%
- pest or weed control at 62.5 g/ha ([9]; Ipomoea, pre-emergence, 312 h, 62.5 g ai/ha, 100=total damage to plant, 0=no damage to plant, read-out: Morningglory, Ivy-leaved damage rating): 0%
- Foxtail, Giant damage rating (100=total damage to plant; 0=no damage to plant) ([10]; 15.625 g ai/ha): 60
- Foxtail, Giant damage rating [10, 16]: 90
- Foxtail, Giant damage rating (100=total damage to plant; 0=no damage to plant) ([10]; 250 g ai/ha): 90
- Pigweed, Redroot damage rating [11, 16]: 40
- Pigweed, Redroot damage rating (100=total damage to plant; 0=no damage to plant) ([11]; 250 g ai/ha): 80
- pest or weed control at 15.625 g/ha ([11]; Amaranthus retroflexus, pre-emergence, 312 h, 15.625 g ai/ha, read-out: Pigweed, Redroot damage rating (100=total damage to plant; 0=no damage to plant)): 0%
- Barnyardgrass damage rating [12, 16]: 80
- Barnyardgrass damage rating (100=total damage to plant; 0=no damage to plant) ([12]; 250 g ai/ha): 80
- pest or weed control at 15.625 g/ha ([12]; Echinochloa crus-galli, pre-emergence, 312 h, 15.625 g ai/ha, read-out: Barnyardgrass damage rating (100=total damage to plant; 0=no damage to plant)): 0%

From patent US12077503B2, “Substituted cyclic amides and their use as herbicides” (FMC CORPORATION, priority 2015, dated 2024)
